Source: PMC8297771 (PLoS Pathogens, 2021)

How the values were obtained:
[1] = test system: MT4 cells; assay: Tissue culture cytotoxicity measurement in MT4 cells; assay type: cell-based
Text: Fig 1 ALLINI structures and STP0404 activities. […] Pyridine-based KF116, D. Pyrrolopyridine-based STP0404. The conserved chemical moiety containing tert-butoxy and carboxylic acid groups are marked by “]”.

[2] = test system: cytochrome P450 enzymes; assay: Cytochrome P450 inhibition assay in human liver microsomes; assay type: in vitro ADME; settings: 8 different cytochrome P450 enzymes
Description: The final concentrations of test article in incubation system were 0, 0.15, 0.5, 1.5, 5, 15 and 50 μM. The inhibition of CYP1A2, 2B6, 2C8, 2C9, 2C19, 2D6, and 3A4 in human liver microsomes was measured as the percentage decrease in the activity of marker metabolite formation compared to non-inhibited controls (= 100% activity). The rate of formation of isoform-specific metabolites derived from marker substrates were measured by UPLC-MS/MS. The IC50 values were calculated with the metabolites decrease percentages of test samples to vehicle samples. All incubations were performed in triplicate (Pharmaron, China).

[3] = In vivo pharmacokinetics in SD rats; settings: Sprague-Dawley, plasma, Rat
Description: Study design: […]). Group 1 was dosed with STP0404 at 1 mg/kg by single intravenous administration. […] The vehicle used for IV study was DMSO: PEG400: […] Blood samples were collected at 0.0833, 0.25, 0.5, 1, 2, 4, 8, 12 (only for PO groups) and 24 hrs post-dose for Groups 1 to 4. STP0404 concentrations in plasma samples were determined by LC-MS/MS. Preclinical Dog pharmacokinetics study (Study no. 400751-2015020201-DPK): A total of 6 male Beagle dogs were divided into two groups (3 animals/group). Following single STP0404 2 mg/kg oral and intravenous administration to Beagle Dogs, STP0404 concentration was determined in plasma, and pharmacokinetic parameters were calculated. […] The concentrations of STP0404 in plasma were determined by using a LC/MS/MS method.

[4] = In vivo pharmacokinetics, summary over rats and dogs; design: species or system SD rats and beagle dogs; settings: Sprague-Dawley (rat), beagle (dog), plasma, range over rats and dogs
Description: Study design: […]). Group 1 was dosed with STP0404 at 1 mg/kg by single intravenous administration. Groups 2 to 4 were dosed with STP0404 at 20, 40 and 80 mg/kg, respectively, by single oral administration. The vehicle used for IV study was DMSO: PEG400: […] Blood samples were collected at 0.0833, 0.25, 0.5, 1, 2, 4, 8, 12 (only for PO groups) and 24 hrs post-dose for Groups 1 to 4. STP0404 concentrations in plasma samples were determined by LC-MS/MS. Preclinical Dog pharmacokinetics study (Study no. 400751-2015020201-DPK): A total of 6 male Beagle dogs were divided into two groups (3 animals/group). Following single STP0404 2 mg/kg oral and intravenous administration to Beagle Dogs, STP0404 concentration was determined in plasma, and pharmacokinetic parameters were calculated. […] The concentrations of STP0404 in plasma were determined by using a LC/MS/MS method.

[5] = test system: Salmonella typhimurium (TA100, TA1535, TA98, TA1537) and Escherichia coli (WP2uvrA); assay: Bacterial reverse mutation assay (GLP); settings: five bacterial strains
Description: Bacterial reverse mutation assay (Study no. YL18407). The bacterial reverse mutation assay of STP0404 was performed in two conditions (with or without metabolic activation) for the dose range-finding test (doses of STP0404rangingfrom 2.29 to 5,000μg/plate) and the main test (doses of STP0404 ranging from 19.5 to 5,000 μg/plate) in comparison with negative control (DMSO) and active controls (sodium azide, 2-(2-furyl)-3-(5-nitro-2-furyl) acrylamide, 2-aminoanthracene, 9-aminoacridine hydrochloride). Salmonella typhimurium (TA100, TA1535) and Escherichia coli (WP2uvrA) were used for detection of base-pair substitutions. Salmonella typhimurium (TA98, TA1537) was used for detection of frameshift mutations. Chromosomal Aberration Test of STP0404 in Cultured Mammalian Cells (Study no. YL18408). Presence/absence of genotoxicity of STP0404 was determined using chromosomal aberration test carried out in CHL/IU cells. The test comprised a dose range-finding test and a main test. Micronucleus Study of STP0404 by oral administration in Rats (Study no. YL18409). STP0404 was administered orally to SD rats (3/group in preliminary test and 6/group in the main test) at dose levels of 500, 1000 and 2000 mg/kg/day once daily for 2 days in a two-test study (preliminary test and main test) to investigate the genotoxicity profile of STP0404. […] Bone marrow smear slides were evaluated (INA Research, Japan).

[6] = Microsomal stability determination; assay type: in vitro ADME, animal and human; settings: human, liver microsomes; all tested species; read-out: microsomal stability T1/2
Description: A liver microsome (LM) stability assay was […] of incubation at 0, 10, 20, 30 and 60 min with a […] STP0404 initial concentration. All plates were shaken and centrifuged at 3200 x g for 20 mins. Then 100 μL of supernatant was taken from each well and diluted with 300 μL pure water before analyzed by LC/MS/MS. Animal and human liver microsomes were purchased from Wuxi AppTec, Xenotech or Corning and stored in a freezer (lower than -60°C) before use (Wuxi AppTec, China).

Cc1nc2c(c(C)c(C)n2Cc2cnn(C)c2)c(-c2ccc(Cl)cc2)c1[C@H](OC(C)(C)C)C(=O)O [STP0404]
TC50 [1]: > 10,000 nM
inhibition of cytochrome P450 enzymes (in words) [2]: low (high μM) or no inhibition (NI)
AUC ([3]; iv, 5 mg/kg (i.v)): 42.7 µM·h
half-life ([3]; iv, 5 mg/kg (i.v)): 3.83 h
AUC ([3]; po, 10 mg/kg (p.o)): 78 µM·h
Cmax ([3]; po, 10 mg/kg (p.o)): 21.4 µM
half-life ([3]; po, 10 mg/kg (p.o)): 4.56 h
bioavailability ([3]; po, 10 mg/kg (p.o), read-out: Ft (oral bioavailability)): 92.8%
half-life ([4]; intravenous, oral, read-out: half-life (T1/2)): 3 to 7 h
bioavailability ([4]; po, read-out: oral bioavailability (Ft)): 50 to 93%
gene mutation-inducing potential [5]: lacked
half-life at 1 μL [6]: > 2.22 h
